Test results reported in paper PMC10885153, “Membrane Permeability in a Large Macrocyclic Peptide Driven by a Saddle-Shaped Conformation” (Journal of the American Chemical Society, 2024).
In brackets after ≈: the same amount, converted by molar mass. Positions of bridges follow the written chain, without caps; N, C: chain ends. Non-standard residues stand in square brackets, D forms with d. Residues, ends and D or L forms follow the SMILES beside them. NMeC = CN[C@@H](CS)C(=O)O; NMeA = CN[C@@H](C)C(=O)O; dAbu = CC[C@@H](N)C(=O)O; dNMeA = CN[C@H](C)C(=O)O; Nva = CCC[C@H](N)C(=O)O; Abu = CC[C@H](N)C(=O)O; Nleu = CC(C)CNCC(=O)O; NPrGly = CCCNCC(=O)O

Experiments:
in vitro [1] = details: dog, pH 7.4
Description: We also tested the permeabilities of the pure compounds in a cell-based trans-well permeability assay using Mdr1 knockout Madin–Darby canine kidney (MDCK) cells which minimize the endogenous efflux activity of traditional MDCK cells.[54]
The gMDCKI cell line (overexpressed cell line of Madin -Darby Canine Kidney which acquired from the NIH)
maintained in DMEM medium supplemented with 1% pen -strep, 5 µg/mL Plasmocin, and 10% FBS under
standard culture conditions (37 °C, 95% humidity, and 5% CO2), were seeded (0.75 x 10^5 cells) on the HTS
Transwell-96 permeable support (Corning) to form a confluent monolayer for two days.
All experimental steps were fully automated on Hamilton Vantage. Compound stock solution (1 mM in
DMSO) was diluted (10 μM final in HBSS, pH 7.4) with Lucifer Yellow as leakage indicator (20 μM). After
washing with HBSS buffer, the solution of test compounds was added to the apical side of the monolayers.
The plate was incubated for 3 h at 37 °C. T0 samples (10 µL of the 10 µM compounds diluted solution with
LY) were transferred to a 96-well plate, and then 40 µL of HBSS was added. After 3 hours, 50 μL basolateral
samples in the receiving plate were transferred to a fresh 96-well plate and added 100 μL of IS solution
(Propranolol). LY were read by plate reader and the samples were analyzed by LC/MS/MS.
The apparent permeability coefficient (Papp) is calculated from the permeation rate and compound
concentration at t=0h and t=3h. Where:
dQ/dt: amount of product present in the basal (A-B) or apical (B-A) compartment as a function of time
A: area of transwell (cm2).
C0: initial concentration of product applied in the apical (A -B) or basal (B-A) compartment (nmol/ml).

in vitro [2] = details: PAMPA
Description: assay was carried out with a 96-well donor plate with 0.45 μ hydrophobic Immobilon-P membrane supports
(Millipore MAIPNTR10) and a 96-well Teflon acceptor plate (Millipore MSSACCEPTOR). The PAMPA
protocol then proceeded as follows:
Donor well solutions were prepared to a volume of 1 000 µL with the analytes as a solution in 1X
PBS pH 7.4 and 5% DMSO. To a 3 mL Eppendorf tube was added 950 µL of 1X PBS pH 7.4, 40
Analyte – 10 µM per compound
sonicated (5 min) to ensure full dissolution of the lecithin. The donor membrane plate was turned
upside down and bottom of the membranes exposed. 5 µL of the 1% soy lecithin solution in
dodecane was then placed on the bottom of the membrane, allowing the drop to spread across the
full area of the membrane. Any membranes with visible damage were not used in the assay. The
membranes were allowed to equilibrate for 5 min before loading.
3. Each well within the Teflon block acceptor plate that was to be used in the assay was then loaded
with 300 µL of 1X PBS pH 7.4 and 5% DMSO.
Working without break, 150 µL of each donor well solution was transferred from the to the 96-well
donor plate. Each mixture of interest was r un in quadruplicate, using a new well for each replicate.
As soon as the 96-well donor plate was finished being loaded, it was gently placed into the 96-well
Teflon acceptor plate, taking care not to trap any air bubbles beneath the membrane.
The donor/acceptor plates were covered gently with the lid to minimize evaporation and transferred
gently as a system to a sealed chamber and left to sit overnight at room temperature. The chamber
was kept from drying by placing a wet paper towel within to prevent evaporation.
After ~19-20 hours the donor plate was removed from the acceptor plate.
50 µL of each well (donor and acceptor) were transferred to a 96 -well plate and diluted with 50 µL
of methanol prior to heat sealing and quantification by UPLC -MS.

physchem = details: pH 7.4, aqueous with cosolvent or surfactant or cyclodextrin, kinetic from dmso stock
Description: Kinetic Solubility PBS Protocol
4 µL of 10 mM compound in DMSO stock was added to 196 µL 1 X PBS pH 7.4 in a 96 -well microplate to
get a final concentration of 200 µM to shake for 24 hours at 1000 rpm. The sample was filtered sample
using a 96-Multiscreen HTS filter plate (Millipore MSSL BPC50) and a positive pressure manifold.

Row | SMILES | Papp A→B at 3 h, 10 µM (in vitro [1]) [×10⁻⁶ cm/s] | Papp at 10 µM (in vitro [2]; pH 7.4, PAMPA Papp) [×10⁻⁶ cm/s] | Papp at 10 µM (in vitro [2]; pH 7.4, PAMPA Pe_avg) [×10⁻⁶ cm/s] | Papp at 3 h, 10 µM (in vitro [1]; MDCK) [×10⁻⁶ cm/s] | Papp A→B at 3 h, 10 µM (in vitro [1]; MDCK) [×10⁻⁶ cm/s] | solubility kinetic at 24 h (physchem) [µM] | Papp at 10 µM (in vitro [2]; pH 7.4, Permeability (Papp) PAMPA (indiv.)) [×10⁻⁶ cm/s]
1 | CCOC(=O)[C@@H]1CSCC(=O)N[C@@H](CC)C(=O)N(CC(C)C)CC(=O)N[C@@H](CC(C)C)C(=O)N(C)[C@H](C)C(=O)N(C)[C@@H](C)C(=O)N[C@H](CC(C)C)C(=O)N(C)[C@H](C)C(=O)N[C@@H](CC(C)C)C(=O)N1C [B1-1L, O=C([C@@H](NC([C@H](N(C([C@H](NC([C@@H](N(C([C@H](N(C)C([C@@H](NC(CN1CC(C)C)=O)CC(C)C)=O)C)=O)C)C)=O)CC(C)C)=O)C)C)=O)CC(C)C)N([C@@H](CSCC(N[C@@H](CC)C1=O)=O)C(OCC)=O)C] ({CH2CO}-[Abu][Nleu]L[dNMeA][NMeA][dL][dNMeA]L[NMeC]-OEt; thioether N-9) | 0.03 | 0.5 | 0.455 |  |  |  | 
2 | CCOC(=O)[C@@H]1CSCC(=O)N[C@H](CC)C(=O)N(CC(C)C)CC(=O)N[C@H](CC(C)C)C(=O)N(C)[C@H](C)C(=O)N(C)[C@@H](C)C(=O)N[C@H](CC(C)C)C(=O)N(C)[C@H](C)C(=O)N[C@@H](CC(C)C)C(=O)N1C [B1-3D, O=C([C@@H](NC([C@H](N(C([C@H](NC([C@@H](N(C([C@H](N(C)C([C@H](NC(CN1CC(C)C)=O)CC(C)C)=O)C)=O)C)C)=O)CC(C)C)=O)C)C)=O)CC(C)C)N([C@@H](CSCC(N[C@H](CC)C1=O)=O)C(OCC)=O)C] ({CH2CO}-[dAbu][Nleu][dL][dNMeA][NMeA][dL][dNMeA]L[NMeC]-OEt; thioether N-9) | 0.48 | 1.5 |  | 0.5 |  |  | 
3 | CCOC(=O)[C@@H]1CSCC(=O)N[C@H](CC)C(=O)N(CC(C)C)CC(=O)N[C@@H](CC(C)C)C(=O)N(C)[C@H](C)C(=O)N(C)[C@@H](C)C(=O)N[C@@H](CC(C)C)C(=O)N(C)[C@H](C)C(=O)N[C@@H](CC(C)C)C(=O)N1C [B1-6L, O=C([C@@H](NC([C@H](N(C([C@@H](NC([C@@H](N(C([C@H](N(C)C([C@@H](NC(CN1CC(C)C)=O)CC(C)C)=O)C)=O)C)C)=O)CC(C)C)=O)C)C)=O)CC(C)C)N([C@@H](CSCC(N[C@H](CC)C1=O)=O)C(OCC)=O)C] ({CH2CO}-[dAbu][Nleu]L[dNMeA][NMeA]L[dNMeA]L[NMeC]-OEt; thioether N-9) | 0.39 | 0.7 | 0.738 | 0.4 |  |  | 

Continued, values first:

Row | Papp A→B at 3 h, 10 µM (in vitro [1]) [×10⁻⁶ cm/s] | Papp at 10 µM (in vitro [2]; pH 7.4, PAMPA Papp) [×10⁻⁶ cm/s] | Papp at 10 µM (in vitro [2]; pH 7.4, PAMPA Pe_avg) [×10⁻⁶ cm/s] | Papp at 3 h, 10 µM (in vitro [1]; MDCK) [×10⁻⁶ cm/s] | Papp A→B at 3 h, 10 µM (in vitro [1]; MDCK) [×10⁻⁶ cm/s] | solubility kinetic at 24 h (physchem) [µM] | Papp at 10 µM (in vitro [2]; pH 7.4, Permeability (Papp) PAMPA (indiv.)) [×10⁻⁶ cm/s] | SMILES
4 | 0.0274 | 0.1 | 0.213 |  |  |  |  | CCOC(=O)[C@@H]1CSCC(=O)N[C@H](CC)C(=O)N(CC(C)C)CC(=O)N[C@@H](CC(C)C)C(=O)N2CCC[C@@H]2C(=O)N(C)[C@@H](C)C(=O)N[C@H](CC(C)C)C(=O)N(C)[C@H](C)C(=O)N[C@@H](CC(C)C)C(=O)N1C [B1-4dP, O=C([C@@H](NC([C@H](N(C([C@H](NC([C@@H](N(C([C@@H]1N(CCC1)C([C@@H](NC(CN2CC(C)C)=O)CC(C)C)=O)=O)C)C)=O)CC(C)C)=O)C)C)=O)CC(C)C)N([C@@H](CSCC(N[C@H](CC)C2=O)=O)C(OCC)=O)C] ({CH2CO}-[dAbu][Nleu]L[dP][NMeA][dL][dNMeA]L[NMeC]-OEt; thioether N-9)
5 | 3.15 | 3.1 |  | 3.2 | 3.2 | 132 (≈ 133 µg/mL) | 2.2 | CCC[C@@H]1NC(=O)CN(CCC)C(=O)[C@H](CC(C)C)NC(=O)CSC[C@@H](C(=O)OCC)N(C)C(=O)[C@H](CC(C)C)NC(=O)[C@H](C)N(C)C(=O)[C@H](CC(C)C)NC(=O)[C@H](C)N(C)C(=O)[C@H]2CCCN2C1=O [LB07, O=C(N(C)[C@H](C(OCC)=O)CSCC(N[C@H](C1=O)CC(C)C)=O)[C@H](CC(C)C)NC([C@H](C)N(C)C([C@H](CC(C)C)NC([C@H](C)N(C)C([C@@H]2N(C([C@H](CCC)NC(CN1CCC)=O)=O)CCC2)=O)=O)=O)=O] ({CH2CO}-L[NPrGly][Nva][dP][NMeA]L[NMeA]L[NMeC]-OEt; thioether N-9)
